pIC50: −log10 of the molar value.
Target: (recombinant) catalytic domain of human Bub1 (amino acids 704-1085) (Homo sapiens (Human), UniProt O43683)
Experiment: Bub1 kinase assay (TR-FRET)
Assay type: biochemical
Settings: ATP 10 μM final, peptide substrate 1 μM final, 60 min at 22° C., read-out: Biological Assay: Bub1 kinase assay median IC50
Outline: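 Readout was TR-FRET between a Eu-labeled antibody complex recognizing phosphoserine and streptavidin-XL665 on the biotinylated peptide, after EDTA stop and 1 h at 22° C. The kinase reaction ran for 60 min at 22° C. Values are means or medians of repeat tests, from 4-parameter fits normalized to enzyme-free and inhibitor-free controls.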

Sequence of (recombinant) catalytic domain of human Bub1 (amino acids 704-1085) (O43683 704-1085): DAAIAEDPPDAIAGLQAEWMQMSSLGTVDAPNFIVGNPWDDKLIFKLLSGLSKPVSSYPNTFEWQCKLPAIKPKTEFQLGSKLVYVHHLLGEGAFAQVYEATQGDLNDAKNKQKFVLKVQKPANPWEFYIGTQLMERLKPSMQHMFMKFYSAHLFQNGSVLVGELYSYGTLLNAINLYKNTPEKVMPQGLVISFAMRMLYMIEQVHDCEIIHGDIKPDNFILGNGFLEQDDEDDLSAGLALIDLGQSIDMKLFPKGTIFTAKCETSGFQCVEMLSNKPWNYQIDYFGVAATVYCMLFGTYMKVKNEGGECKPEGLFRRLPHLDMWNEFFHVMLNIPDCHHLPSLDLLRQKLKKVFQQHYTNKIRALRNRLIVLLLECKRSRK

Row | pIC50 | SMILES
1 | 6.21 | O=C1CCCc2[nH]c(-c3ccnc(NCC4CC4)c3)c(Nc3ccccc3)c21 [Example 368, 2-{2-[(cyclopropylmethyl)amino]pyridin-4-yl}-3-(phenylamino)-1,5,6,7-tetrahydro-4H-indol-4-one]
2 | 6.44 | O=C(O)CNc1cc(-c2[nH]c3c(c2Nc2ccccc2)C(=O)CCC3)ccn1 [Example 369, N-{4-[4-oxo-3-(phenylamino)-4,5,6,7-tetrahydro-1H-indol-2-yl]pyridin-2-yl}glycine]
3 | 7.52 | CCNC(=O)Nc1cc(-c2[nH]c3c(c2Nc2ccccc2)C(=O)CCC3)ccn1 [Example 377, 1-ethyl-3-{4-[4-oxo-3-(phenylamino)-4,5,6,7-tetrahydro-1H-indol-2-yl]pyridin-2-yl}urea]
4 | 7.19 | CC(C)NC(=O)Nc1cc(-c2[nH]c3c(c2Nc2ccccc2)C(=O)CCC3)ccn1 [Example 378, 1-{4-[4-oxo-3-(phenylamino)-4,5,6,7-tetrahydro-1H-indol-2-yl]pyridin-2-yl}-3-propan-2-ylurea]
5 | 7.44 | O=C(Nc1cc(-c2[nH]c3c(c2Nc2ccccc2)C(=O)CCC3)ccn1)NC1CC1 [Example 379, 1-cyclopropyl-3-{4-[4-oxo-3-(phenylamino)-4,5,6,7-tetrahydro-1H-indol-2-yl]pyridin-2-yl}urea]
6 | 6.36 | CC(C)(C)NC(=O)Nc1cc(-c2[nH]c3c(c2Nc2ccccc2)C(=O)CCC3)ccn1 [Example 380, 1-tert-butyl-3-{4-[4-oxo-3-(phenylamino)-4,5,6,7-tetrahydro-1H-indol-2-yl]pyridin-2-yl}urea]
7 | 7.03 | CC(C)CNC(=O)Nc1cc(-c2[nH]c3c(c2Nc2ccccc2)C(=O)CCC3)ccn1 [Example 381, 1-(2-methylpropyl)-3-{4-[4-oxo-3-(phenylamino)-4,5,6,7-tetrahydro-1H-indol-2-yl]pyridin-2-yl}urea]
8 | 7.20 | O=C(NCC(F)F)Nc1cc(-c2[nH]c3c(c2Nc2ccccc2)C(=O)CCC3)ccn1 [Example 387, 1-(2,2-difluoroethyl)-3-{4-[4-oxo-3-(phenylamino)-4,5,6,7-tetrahydro-1H-indol-2-yl]pyridin-2-yl}urea]
9 | 7.41 | CSCCNC(=O)Nc1cc(-c2[nH]c3c(c2Nc2ccccc2)C(=O)CCC3)ccn1 [Example 389, 1-[2-(methylsulfanyl)ethyl]-3-{4-[4-oxo-3-(phenylamino)-4,5,6,7-tetrahydro-1H-indol-2-yl]pyridin-2-yl}urea]
10 | 7.06 | CNC(=S)Nc1cc(-c2[nH]c3c(c2Nc2ccccc2)C(=O)CCC3)ccn1 [Example 392, 1-methyl-3-{4-[4-oxo-3-(phenylamino)-4,5,6,7-tetrahydro-1H-indol-2-yl]pyridin-2-yl}thiourea]
11 | 6.63 | CCNC(=S)Nc1cc(-c2[nH]c3c(c2Nc2ccccc2)C(=O)CCC3)ccn1 [Example 393, 1-ethyl-3-{4-[4-oxo-3-(phenylamino)-4,5,6,7-tetrahydro-1H-indol-2-yl]pyridin-2-yl}thiourea]
12 | 5.94 | O=C1CCCc2[nH]c(-c3ccnc(NC(=S)NCC(F)(F)F)c3)c(Nc3ccccc3)c21 [Example 394, 1-{4-[4-oxo-3-(phenylamino)-4,5,6,7-tetrahydro-1H-indol-2-yl]pyridin-2-yl}-3-(2,2,2-trifluoroethyl)thiourea]
13 | 6.67 | O=C1CCCc2[nH]c(-c3ccnc(NC(=S)NC4CC4)c3)c(Nc3ccccc3)c21 [Example 395, 1-cyclopropyl-3-{4-[4-oxo-3-(phenylamino)-4,5,6,7-tetrahydro-1H-indol-2-yl]pyridin-2-yl}thiourea]
14 | 5.61 | CC(C)(C)NC(=S)Nc1cc(-c2[nH]c3c(c2Nc2ccccc2)C(=O)CCC3)ccn1 [Example 396, 1-tert-butyl-3-{4-[4-oxo-3-(phenylamino)-4,5,6,7-tetrahydro-1H-indol-2-yl]pyridin-2-yl}thiourea]
15 | 5.98 | O=C1CCCc2[nH]c(-c3ccnc(NC(=S)NC4CCCC4)c3)c(Nc3ccccc3)c21 [Example 397, 1-cyclopentyl-3-{4-[4-oxo-3-(phenylamino)-4,5,6,7-tetrahydro-1H-indol-2-yl]pyridin-2-yl}thiourea]
16 | 6.26 | O=C1CCCc2[nH]c(-c3ccnc(NC(=S)NCC4CC4)c3)c(Nc3ccccc3)c21 [Example 398, 1-(cyclopropylmethyl)-3-{4-[4-oxo-3-(phenylamino)-4,5,6,7-tetrahydro-1H-indol-2-yl]pyridin-2-yl}thiourea]
17 | 6.53 | CCCNC(=S)Nc1cc(-c2[nH]c3c(c2Nc2ccccc2)C(=O)CCC3)ccn1 [Example 399, 1-{4-[4-oxo-3-(phenylamino)-4,5,6,7-tetrahydro-1H-indol-2-yl]pyridin-2-yl}-3-propylthiourea]

The next lines start with the molecule.

Row | SMILES | pIC50
18 | O=C1CCCc2[nH]c(-c3ccnc(NCc4ccccc4)c3)c(Nc3ccccc3)c21 [Example 366, 2-[2-(benzylamino)pyridin-4-yl]-3-(phenylamino)-1,5,6,7-tetrahydro-4H-indol-4-one] | 5.78
19 | O=C1CCCc2[nH]c(-c3ccnc(NCc4ccncc4)c3)c(Nc3ccccc3)c21 [Example 367, 3-(phenylamino)-2-{2-[(pyridin-4-ylmethyl)amino]pyridin-4-yl}-1,5,6,7-tetrahydro-4H-indol-4-one] | 6.54
20 | CC1(C)OC[C@H](CNc2cc(-c3[nH]c4c(c3Nc3ccccc3)C(=O)CCC4)ccn2)O1 [Example 370, 2-[2-({[(4S)-2,2-dimethyl-1,3-dioxolan-4-yl]methyl}amino)pyridin-4-yl]-3-(phenylamino)-1,5,6,7-tetrahydro-4H-indol-4-one] | 5.89
21 | O=C1CCCc2[nH]c(-c3ccnc(NC[C@H](O)CO)c3)c(Nc3ccccc3)c21 [Example 371, 2 2-(2-{[(2S)-2,3-dihydroxypropyl]amino}pyridin-4-yl)-3-(phenylamino)-1,5,6,7-tetrahydro-4H-indol-4-one] | 6.00
22 | O=C1CCCc2[nH]c(-c3ccnc(NCc4cccnc4)c3)c(Nc3ccccc3)c21 [Example 372, 3-(phenylamino)-2-{2-[(pyridin-3-ylmethyl)amino]pyridin-4-yl}-1,5,6,7-tetrahydro-4H-indol-4-one] | 5.02
23 | CC(C)(C)OC(=O)N1CC(CNc2cc(-c3[nH]c4c(c3Nc3ccccc3)C(=O)CCC4)ccn2)C1 [Example 373, tert-butyl 3-[({4-[4-oxo-3-(phenylamino)-4,5,6,7-tetrahydro-1H-indol-2-yl]pyridin-2-yl}amino)methyl]azetidine-1-carboxylate] | 6.16
24 | Cn1nnnc1Nc1cc(-c2[nH]c3c(c2Nc2ccccc2)C(=O)CCC3)ccn1 [Example 374, 2-{2-[(1-methyl-1H-tetrazol-5-yl)amino]pyridin-4-yl}-3-(phenylamino)-1,5,6,7-tetrahydro-4H-indol-4-one] | 7.73
25 | O=C1CCCc2[nH]c(-c3ccnc(Nc4cccc(F)c4)c3)c(Nc3ccccc3)c21 [Example 375, 2-{2-[(3-fluorophenyl)amino]pyridin-4-yl}-3-(phenylamino)-1,5,6,7-tetrahydro-4H-indol-4-one] | 6.48
26 | CC(C)Nc1cnccc1-c1[nH]c2c(c1Nc1ccccc1)C(=O)CCC2 [Example 376, 3-(phenylamino)-2-[3-(propan-2-ylamino)pyridin-4-yl]-1,5,6,7-tetrahydro-4H-indol-4-one] | 5.60
27 | O=C(NCC(F)(F)F)Nc1cc(-c2[nH]c3c(c2Nc2ccccc2)C(=O)CCC3)ccn1 [Example 382, 1-{4-[4-oxo-3-(phenylamino)-4,5,6,7-tetrahydro-1H-indol-2-yl]pyridin-2-yl}-3-(2,2,2-trifluoroethyl)urea] | 7.08
28 | COCCNC(=O)Nc1cc(-c2[nH]c3c(c2Nc2ccccc2)C(=O)CCC3)ccn1 [Example 383, 1-(2-methoxyethyl)-3-{4-[4-oxo-3-(phenylamino)-4,5,6,7-tetrahydro-1H-indol-2-yl]pyridin-2-yl}urea] | 7.16
29 | O=C(NCc1ccco1)Nc1cc(-c2[nH]c3c(c2Nc2ccccc2)C(=O)CCC3)ccn1 [Example 384, 1-(furan-2-ylmethyl)-3-{4-[4-oxo-3-(phenylamino)-4,5,6,7-tetrahydro-1H-indol-2-yl]pyridin-2-yl}urea] | 6.95
30 | O=C(Nc1ccncc1)Nc1cc(-c2[nH]c3c(c2Nc2ccccc2)C(=O)CCC3)ccn1 [Example 385, 1-{4-[4-oxo-3-(phenylamino)-4,5,6,7-tetrahydro-1H-indol-2-yl]pyridin-2-yl}-3-pyridin-4-ylurea] | 8.00
31 | O=C(Nc1ccccn1)Nc1cc(-c2[nH]c3c(c2Nc2ccccc2)C(=O)CCC3)ccn1 [Example 386, 1-{4-[4-oxo-3-(phenylamino)-4,5,6,7-tetrahydro-1H-indol-2-yl]pyridin-2-yl}-3-pyridin-2-ylurea] | 7.69
32 | O=C(NCCCl)Nc1cc(-c2[nH]c3c(c2Nc2ccccc2)C(=O)CCC3)ccn1 [Example 388, 1-(2-chloroethyl)-3-{4-[4-oxo-3-(phenylamino)-4,5,6,7-tetrahydro-1H-indol-2-yl]pyridin-2-yl}urea] | 7.36
33 | Cn1cc(NC(=O)Nc2cc(-c3[nH]c4c(c3Nc3ccccc3)C(=O)CCC4)ccn2)cn1 [Example 390, 1-(1-methyl-1H-pyrazol-4-yl)-3-{4-[4-oxo-3-(phenylamino)-4,5,6,7-tetrahydro-1H-indol-2-yl]pyridin-2-yl}urea] | 8.40
34 | Cn1cc(NC(=O)Nc2cc(-c3[nH]c4c(c3Nc3ccccc3)C(=O)CC(C)(C)C4)ccn2)cn1 [Example 391, 1-{4-[6,6-dimethyl-4-oxo-3-(phenylamino)-4,5,6,7-tetrahydro-1H-indol-2-yl]pyridin-2-yl}-3-(1-methyl-1H-pyrazol-4-yl)urea] | 8.34
35 | CC1(C)CC(=O)c2c([nH]c(-c3ccnc(C(F)F)c3)c2Nc2ccccc2)C1 [Example 400, 2-[2-(difluoromethyl)pyridin-4-yl]-6,6-dimethyl-3-(phenylamino)-1,5,6,7-tetrahydro-4H-indol-4-one] | 6.80

Reference: patent US10428044B2, “3-amino-1,5,6,7-tetrahydro-4H-indol-4-ones” (Bayer Pharma Aktiengesellschaft, priority 2014, dated 2019)
